Laboratory results published in patent US20220232831A1, “NOVEL NON-CODING HETEROCYCLIC AMINO ACIDS (NCHAA) AND THEIR USE AS HERBICIDES” (Fortephest Ltd., priority 2019, published 2022).

Columns and labels:
[1] = system: Romaine lettuce (Lactuca sativa L.) plants; experiment: Post-emergency herbicidal activity on Romaine lettuce plants; format: in vivo; conditions: Romaine lettuce at stage 2 to 3 leaves; compound in 0.1% Silwet, up to 0.5%; visual evaluation vs control plants
Procedure, shortened: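 Plants at the 2 to 3 leaf stage were treated with compound in 0.1% aqueous Silwet at 0.0% (Control) to 0.5%, with 20 to 40 plants per test. Vigor, height and leaf color were scored 0 (dead) to 100 (healthy) at 7, 14 and 21 DAA, and aboveground wet weight was measured.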

[2] = system: Seeds of Lettuce R. (Super-Jericho); experiment: Filter paper bioassay with lettuce seeds (germination and early plant development); format: in vivo; conditions: lettuce seeds on filter paper; 1, 0.1, 0.01, 0.001 mM; radicle and shoots assessed after 6 days
Procedure, shortened: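 Lettuce seeds (10 per plate) were placed on filter paper with 2.0 ml water or test material at 1, 0.1, 0.01 or 0.001 mM. Plates were kept dark for 48 h, then grown 4 days at 22° C under a 6/18 dark/light cycle. At day 6, radicle and shoot development was scored visually; MEC is the lowest concentration causing deviation from control.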

Structure (SMILES)	post-emergency herbicidal activity (Activity Index: plant's development vs Control) [1]	Minimal Effective Concentration (MEC) as activity score, seeds germination & early plants development [2]
NC(Cc1cc(C(F)(F)F)cnc1Cl)C(=O)O (stereo not shown) [Code 663]	Moderate (From 50 to 75)	Strong (0.1 mM)
NC(Cc1ccsc1)C(=O)O (stereo not shown) [Code 502]	Very Strong (From 15 to 25)	Maximal (0.01 mM and less)
NC(CC(=O)O)c1cscc1Br (stereo not shown) [Code 511]	Weak (More than 75)	Weak (More than 1 mM)
NC(Cc1cccs1)C(=O)O (stereo not shown) [Code 501]	Strong (From 25 to 50)	Maximal (0.01 mM and less)
NC(Cc1nc(Cl)sc1Cl)C(=O)O (stereo not shown) [Code 527]	Maximal (Less than 15)	Moderate (1 mM)
Cl.Cl.NC(Cc1ncccn1)C(=O)O (stereo not shown) [Code 618]	Weak (More than 75)	Weak (More than 1 mM)
COC(=O)C(N)Cc1ccsc1 (stereo not shown) [Code 546]	Very Strong (From 15 to 25)	Maximal (0.01 mM and less)
CCOC(=O)C(N)Cc1ccsc1 (stereo not shown) [Code 547]	Very Strong (From 15 to 25)	Maximal (0.01 mM and less)
NC(Cc1cnccn1)C(=O)O (stereo not shown) [Code 621]	Weak (More than 75)	Weak (More than 1 mM)
CCCCOC(=O)C(N)Cc1ccsc1 (stereo not shown) [Code 513]	Very Strong (From 15 to 25)	Strong (0.1 mM)
N[C@@H](Cc1cncc(O)c1)C(=O)O [Code 605]	Weak (More than 75)	Weak (More than 1 mM)
CCOC(=O)C(N)Cc1cnc(Br)c(Br)c1 (stereo not shown) [Code 661]	Moderate (From 50 to 75)	Maximal (0.01 mM and less)
NC(CNS(=O)(=O)c1cscc1F)C(=O)O (stereo not shown) [Code 506]	Weak (More than 75)	Weak (More than 1 mM)
NC(Cc1cc[nH]c(=O)c1)C(=O)O (stereo not shown) [Code 642]	Weak (More than 75)	Weak (More than 1 mM)
Cl.Cl.NC(Cc1cccnc1)C(=O)O (stereo not shown) [Code 603]	Strong (From 25 to 50)	Strong (0.1 mM)
NC(Cc1cncc(Cl)c1)C(=O)O (stereo not shown) [Code 622]	Moderate (From 50 to 75)	Strong (0.1 mM)
NC(Cc1cnsn1)C(=O)O (stereo not shown) [Code 529]	Moderate (From 50 to 75)	Strong (0.1 mM)
